Laboratory results: US12606529B2, “Sulfur and amide tropolone inhibitors of nucleotidyl transferases and uses therefor” (Saint Louis University, priority 2019, dated 2026)
Values after ≈ are worked out from the molar mass of the structure shown. Where two headings read alike, the source gives them in different places.

What was measured:
HBV replication = HBV replication inhibition in HepDES19 cells (strand-preferential qPCR); conditions: for EC50: Hepatitis B virus; for SI (CC50/EC50): cytotoxicity CC50 over HBV replication EC50
Protocol: Cells used for toxicity and HBV studies.
HBV replication inhibition studies. HepDES19 cells were seeded in 96-well plates at 4×10^4 cells per well in the absence of tetracycline. Test compounds in a final DMSO concentration of 1% were applied to cells 48 hours after induction of HBV replication and cells were incubated with compounds for 72 hours. Cells were washed in 200 μL of phosphate buffered saline (PBS) and lysed in 150 μL of core lysis buffer (10 mM Tris pH 7.4, 1% Tween20, 150 mM NaCl). Cells were incubated at room temperate on an orbital shaker at 350 rpm for 40 minutes. Cell lysate was transferred to a 96 well polymerase chain reaction (PCR) plate and centrifuged at 3300×g for 5 minutes. The supernatant (50 μL) from the cell lysate was transferred to a 96-well PCR plate and mixed with 20 units of micrococcal nuclease and 100 μM CaCl2. The lysate was incubated for 1 hour at 37° C., and then the nuclease was inactivated at 70° C. for ten minutes. Qiagen protease (0.005 Anson units) was added to the lysate and the mixture was incubated overnight. Qiagen protease was then inactivated at 95° C. for ten minutes.
The crude lysate was used as the template for strand-preferential quantitative polymerase chain reaction (q-PCR) analysis. Quantitative PCR was performed with 40 cycles of 95° C. for 15 s and 60° C. for 1 minute employing the Kappa Probe Force universal PCR master mix.

human RNaseH1 = molecular target: T1, human RNaseH1 (Homo sapiens, UniProt O60930); test: Biochemical inhibition of human RNaseH1 activity; conditions: for SIApparent (huRH1 IC50/EC50): huRH1 IC50 over HBV replication EC50
T1 sequence (O60930 1-286): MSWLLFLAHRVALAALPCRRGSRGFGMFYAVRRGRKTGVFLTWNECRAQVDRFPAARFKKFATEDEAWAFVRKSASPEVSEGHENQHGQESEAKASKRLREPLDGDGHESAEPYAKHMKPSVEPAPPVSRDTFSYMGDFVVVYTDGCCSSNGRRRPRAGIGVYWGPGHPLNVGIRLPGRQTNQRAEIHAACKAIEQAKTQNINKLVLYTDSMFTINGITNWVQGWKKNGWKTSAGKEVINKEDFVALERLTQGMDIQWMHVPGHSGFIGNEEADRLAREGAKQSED
Protocol: Biochemical inhibition of human RNaseH1 activity. Quantitative inhibition of the human RNaseH1 in the biochemical assays was assessed using a molecular beacon assay as described previously (Edwards et al., 2017). Recombinant human RNaseH 1 (0.3 μg) was incubated with 100 nM RNA:DNA substrate, 50 mM HEPES pH 8.0, 100 mM NaCl, 2 mM Tris(2-carboxyethyl)phosphine hydrochloride (TCEP), 0.05% Tween20, 5 units of RNaseOut, test compounds (0 to 500 μM), and 5% DMSO in a 100 μL reaction volume. The substrate was formed by annealing a complementary RNA oligonucleotide to a hairpin DNA oligonucleotide to hold the hairpin DNA oligonucleotide in an open conformation. The DNA oligonucleotide has a 5′ fluorescein reporter and a 3′ black hole quencher. When the RNA is degraded from the substrate the DNA oligonucleotide closes to form a hairpin structure, decreasing in signal intensity. Reactions were initiated with 5 mM MgCl2 and fluorescence was read using a Synergy HTS multi-mode plate reader at 37° C. Alternatively, the HBV RNaseH version used was MBP-HRHgtCΔ5, a genotype C isolate which lacks the C-terminal 35 amino acids of the HBV RNaseH domain that are predicted to be unstructured. Quantitative inhibition of the human RNaseH1 in biochemical assays was assessed using a FRET-based RNaseH assay under conditions previously reported for an RNaseH molecular beacon assay (Edwards et al., 2017). […] Cleavage of the RNA strand released the fluorescein from quenching, increasing fluorescence. Reactions were monitored for 90 min at 37° C. in a plate reader and initial reaction rates were calculated. Reactions contained escalating concentrations of the compounds.

HSV-1 = test: Anti-HSV-1 replication assay (Vero cells, plaque titer); assay type: cell-based, herpes simplex virus 1; conditions: for log reduction at 5 µM: compound at 5 μM, read-out: HSV-1 suppression 5 μM; for log reduction at 1 µM: compound at 1 μM, read-out: HSV-1 suppression 1 μM
[1] = system: C. neoformans var. grubii, KN99; test: C. neoformans growth inhibition assay (limiting dilution); assay type: cell-based, Cryptococcus neoformans; conditions: Cryptococcus neoformans, 48 h, 48 h, 35° C., read-out: C. neoformans MIC80
Protocol: Cell types used for C. neoformans studies. All inhibition assays were performed with C. neoformans var. grubii, KN99 (serotype A, MAT). Two clinical strains of C. neoformans var. grubii, serotype A, were provided by Tamara Doering and Andre Spec. […] Cells were diluted to OD650 0.001 in YNB-02 02 (0.67% yeast nitrogen base, 0.2% dextrose, pH 7.0 with 50 mM MOPs)+1% DMSO prior to addition to the plates for the inhibition assays.
C. neoformans growth inhibition assays. Compounds were tested in a limiting dilution assay with a starting optical density (at 650 nm) of 0.001 in YNB-02 plus 1% DMSO. Cells plus compound were incubated in 96-well clear round bottom plates covered with a Breath-easy® membrane without shaking for 48 hours at 35° C. Before measuring cell density, plates were shaken on a microtiter plate shaker at 900 rpm for 3 minutes to resuspend cells and optical density was measured at 650 nm. […] Each assay was done in triplicate and all values are the average of two or more independent assays. The data are presented as the average cell density as a percent of DMSO-only treated cells. MICs are reported as the minimal concentration needed to inhibit 80% of C. neoformans growth relative to vehicle-treated controls.

in vitro = conditions: human, HepDES19 cells
Protocol: Cells used for toxicity and HBV studies. […] Cells were maintained in Dulbecco's modified Eagle's medium (DMEM)/F12 media supplemented with 10% fetal bovine serum (FBS) and 1% penicillin/streptomycin (P/S) with 1 μg/mL tetracycline. Synchronized expression of HBV pgRNA was induced by removing tetracycline from the culture medium.
Cytotoxicity Assays. Qualitative assessments of cytotoxicity were done visually by inspecting the cells in the primary screening assays. […] The next day the compounds were added at 0.78 to 100 μM in a final concentration of 1% (v/v) DMSO, and the cells were incubated for 24 hours under conditions identical to those employed for the viral replication inhibition assays. Mitochondrial toxicity was measured by incubating the cells with 0.25 mg/mL thiazolyl blue tetrazolium bromide (MTT, SigmaAldrich Chemical Co.), the cultures were incubated for 60 mM, metabolites were solubilized in acidic isopropanol, and absorbance was read at 570 nm. CC50 values were calculated by non-linear curve fitting using GraphPad Prism using the three-parameter variable-response log(inhibitor)-versus-response algorithm with the bottom value set to zero.

[2] = HepDES19, 72 h, Table 2 amides, HBV replication, HepDES19 cells, plus-polarity DNA, 72 h
[3] = HepDES19, read-out: EC50 against HBV replication
[4] = Table 2 amides, read-out: HuRH1 IC50
[5] = Human alphaherpesvirus 1, Vero, Table 2 amides, values separated by / are repeats
[6] = Table 2 amides, tested 0.19 to 50 μM
[7] = HepDES19, read-out: HBV EC50, Table 3 sulfur compounds, HBV replication, HepDES19 cells
[8] = Table 3 sulfur compounds, read-out: Hu RNaseH IC50
[9] = Human alphaherpesvirus 1, Vero, Table 3 sulfur compounds, values separated by / are repeats
[10] = CC50, Table 3 sulfur compounds, MTT

Compound	EC50 (HBV replication; [2]) [µM]	IC50 (human RNaseH1; [4]) [µM]	log reduction at 5 µM (HSV-1; [5])	MIC80 [1, 6] [µM]	CC50 at 24 h (in vitro; CC50 (μM), Table 2 amides, MTT) [µM]	EC50 (HBV replication; [7]) [µM]	IC50 (human RNaseH1; [8]) [µM]	log reduction at 1 µM (HSV-1; [9])	log reduction at 5 µM (HSV-1; [9])	MIC80 ([1]; Table 3 sulfur compounds) [µM]	CC50 at 24 h (in vitro; [10]) [µM]	also measured
Cc1cc(O)c(=O)c(O)cc1C(=O)N1CCCCC1 [compound 390]	0.31 ± 0.1	106 ± 64.6	0.52	22 (≈ 5.79 µg/mL)	24.9 ± 11.6							EC50 (HBV replication; [3]): 0.31 µM; CC50 at 24 h (in vitro; CC50): > 20 µM
Cc1cc(O)c(=O)c(O)cc1C(=O)Nc1ccc(F)nc1 [compound 707]	0.54	148 ± 22.3	-0.18	36 (≈ 10.4 µg/mL)	19.4 ± 8.4							SI (CC50/EC50) (HBV replication; Table 2 amides): 36.2; SIApparent (huRH1 IC50/EC50) (human RNaseH1; Table 2 amides): 277
O=c1c(O)cccc(Sc2ccccc2)c1O [compound 691]						43.6	31.9	0.72	5.69	1 (≈ 0.246 µg/mL)	19.5	Reduction of HSV-1 titers / suppression of HSV-1 replication at 5 μM (HSV-1; 5 μM, plaque forming units (PFU)/ml): > 3 log10
O=c1c(O)cccc(S)c1O [compound 701]						7.6	46		0.94	5 (≈ 0.851 µg/mL)	63.9	
Cc1cc(O)c(=O)c(O)cc1C(=O)N1CCN(C(c2ccc(F)cc2)c2ccc(F)cc2)CC1 [compound 1017]	5.6	29.9 ± 10.7		6 (≈ 2.8 µg/mL)	3.9 ± 1.4							EC50 (HBV replication; [3]): > 2 µM
Cc1cc(O)c(=O)c(O)cc1C(=O)Nc1ccc(F)cc1F [compound 711]	0.75 ± 0.3	184	0.32	4.5 (≈ 1.38 µg/mL)	4.6 ± 0.8							EC50 against HBV replication (HBV replication): sub-micromolar; SI (CC50/EC50) (HBV replication; Table 2 amides): 10.2; SIApparent (huRH1 IC50/EC50) (human RNaseH1; Table 2 amides): 247
Cc1cc(O)c(=O)c(O)cc1C(=O)N1CCN(C(=O)c2ccco2)CC1 [compound 800]	0.52 ± 0.2	46.3 ± 10.2		26 (≈ 9.32 µg/mL)	16.5 ± 11.4							
CCCCSc1ccc(SCCCC)c(O)c(=O)c1O [compound 694]						12.6	127	4.85	5.86	2 (≈ 0.629 µg/mL)	1.8	Therapeutic index (CC50/EC50) for HBV (TI, SI) (HBV replication): 0.14
C#CCCC1(CCNC(=O)c2cc(O)c(=O)c(O)cc2C)N=N1 [compound 384]	0.66 ± 0.7	111 ± 48.8	0.77	3.5 (≈ 1.1 µg/mL)	17.6 ± 8.9							
O=c1c(O)cccc(S(=O)(=O)Cc2ccccc2)c1O [compound 705]						2.76	135	0.19	3.55	50 (≈ 14.6 µg/mL)	8.4	
Cc1cc(O)c(=O)c(O)cc1C(=O)N1CCSC1 [compound 712]	0.77 ± 0.5	116 ± 67.6	0.36	18 (≈ 4.81 µg/mL)	6.4 ± 0.8							
COC(=O)[C@H](CCSC)NC(=O)c1cc(O)c(=O)c(O)cc1C [compound 796]	1.1 ± 0.1	83.3 ± 40.2		18 (≈ 6.14 µg/mL)	36 ± 24.1							
O=c1c(O)c(SCc2ccccc2)ccc(SCc2ccccc2)c1O [compound 703]						10.6	49.6	4.56	5.88	6.75 (≈ 2.58 µg/mL)	8.2	
O=c1c(O)cccc(S(=O)(=O)c2cccc3ccccc23)c1O [compound 698]						6.18	234	-0.35	4.85	49 (≈ 16.1 µg/mL)	14.8	log reduction at 0.33 µM (HSV-1; Human alphaherpesvirus 1, Vero, Table 3 sulfur compounds, compound at 0.33 μM, values separated by / are repeats, read-out: HSV-1 suppression 0.33 μM): -0.31
Cc1cc(O)c(=O)c(O)cc1C(=O)N1CCN(C2CC2)CC1 [compound 871]	1.15 ± 0.4	88.2 ± 43.3	-0.0192	50 (≈ 15.2 µg/mL)	36.6 ± 3.6							log reduction at 1 µM (HSV-1; [5]): -0.1
Cc1cc(O)c(=O)c(O)cc1C(=O)N1CCN(c2ncccn2)CC1 [compound 1016]	0.9	5.1 ± 2.7		18 (≈ 6.16 µg/mL)	24.6 ± 40							
O=c1c(O)cccc(SCCc2ccccc2)c1O [compound 704]						52	24.7	0.06	5.72	1.4 (≈ 0.384 µg/mL)	21.6	EC50 (HBV replication; [3]): 52 µM
Cc1cc(O)c(=O)c(O)cc1C(=O)N1CCN(Cc2c(F)cccc2Cl)CC1 [compound 1021]	3.05 ± 0.6	44 ± 46.2		4.5 (≈ 1.83 µg/mL)	10.4 ± 7.3							EC50 (HBV replication; [3]): > 2 µM
Cc1cc(O)c(=O)c(O)cc1C(=O)N1CCN(C(=O)C2COc3ccccc3O2)CC1 (stereo not shown) [compound 876]	0.7 ± 0.4	39.2 ± 40.6	0.273	9 (≈ 3.84 µg/mL)	9.2 ± 3.2							log reduction at 1 µM (HSV-1; [5]): -0.0739
Cc1cc(O)c(=O)c(O)cc1C(=O)N1CCN(C(=O)c2cccnc2)CC1 [compound 918]	1.45 ± 0.4	127 ± 98.1		50 (≈ 18.5 µg/mL)	43.8 ± 10.7							
